This experiment addresses T1, chicken gizzard smooth muscle myosin subfragment-1 chemically crosslinked to cardiac or skeletal actin (Gallus gallus, UniProt P10587).
T1 construct: chicken gizzard smooth muscle myosin subfragment-1; from tissue; host or cells: chicken gizzard
The experiment is described as follows: Smooth muscle myosin ATPase dose response assay (pyruvate kinase/horseradish peroxidase/pyruvate oxidase-coupled, amplex red fluorescence). The experiment is classed as biochemical. Particulars: read-out: IC50 Arithmetic Mean. An outline of the steps: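 Amplex red fluorescence (480 nm excitation, 615 nm emission) tracked ATP hydrolysis by smooth muscle S1 crosslinked to actin with carbodiimide/N-hydroxysuccinimide. Reactions contained 0.15 mM ATP and 100 mM KCl at pH 7.00, 22° C. IC50 came from a four-parameter logistic fit.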
T1 sequence (P02607 2-151): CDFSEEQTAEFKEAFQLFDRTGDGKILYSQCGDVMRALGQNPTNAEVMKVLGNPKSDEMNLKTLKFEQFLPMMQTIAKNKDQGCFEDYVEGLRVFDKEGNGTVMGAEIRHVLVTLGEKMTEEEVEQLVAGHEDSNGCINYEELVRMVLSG
T1 sequence (P10587 84-789): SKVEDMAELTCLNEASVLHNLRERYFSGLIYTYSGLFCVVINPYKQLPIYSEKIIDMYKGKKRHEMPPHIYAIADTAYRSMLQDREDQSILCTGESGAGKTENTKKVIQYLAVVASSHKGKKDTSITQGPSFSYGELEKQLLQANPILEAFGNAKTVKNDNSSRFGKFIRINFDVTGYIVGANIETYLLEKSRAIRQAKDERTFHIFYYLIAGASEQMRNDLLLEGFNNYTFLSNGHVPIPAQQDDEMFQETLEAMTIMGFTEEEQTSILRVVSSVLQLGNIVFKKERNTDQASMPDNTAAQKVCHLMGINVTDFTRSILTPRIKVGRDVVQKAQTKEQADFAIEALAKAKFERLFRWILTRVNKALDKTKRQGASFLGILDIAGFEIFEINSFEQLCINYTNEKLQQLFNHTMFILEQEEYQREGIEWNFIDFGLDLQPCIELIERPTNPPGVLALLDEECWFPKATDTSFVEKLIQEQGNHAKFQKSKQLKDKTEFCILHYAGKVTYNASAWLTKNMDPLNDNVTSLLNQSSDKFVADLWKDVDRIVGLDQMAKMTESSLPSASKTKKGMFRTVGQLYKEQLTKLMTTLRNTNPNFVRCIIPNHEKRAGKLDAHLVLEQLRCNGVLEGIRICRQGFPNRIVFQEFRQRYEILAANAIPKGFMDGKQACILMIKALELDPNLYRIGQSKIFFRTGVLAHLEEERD
In the case of `Cn1cc(-c2nc(NCCc3cccc(F)c3)c(C(=O)NC[C@H]3CCC(=O)N3)cc2F)cn1` [N-[((2R)-5-oxopyrrolidin-2-yl)methyl](5-fluoro-2-{[2-(3-fluorophenyl)ethyl]amino}-6-(1-methylpyrazol-4-yl)(3-pyridyl))carboxamide], the IC50 worked out at 27 nM.

`N#Cc1ccccc1-c1ccc(C(=O)NC[C@H]2CCC(=O)N2)c(NCCc2cccc(F)c2)n1` [N-[((2R)-5-oxopyrrolidin-2-yl)methyl](6-(2-cyanophenyl)-2-{[2-(3-fluorophenyl)ethyl]amino}(3-pyridyl))carboxamide]: the IC50 was 13 nM.

For the compound `N#Cc1ccccc1-c1ccc(C(=O)NC[C@H]2CCCC(=O)N2)c(NCCc2cccc(F)c2)n1` [N-[((2R)-6-oxo(2-piperidyl))methyl](6-(2-cyanophenyl)-2-{[2-(3-fluorophenyl)ethyl]amino}(3-pyridyl))carboxamide], the concentration for half-maximal inhibition (IC50) worked out at 15 nM.

As to `N#Cc1ccccc1-c1ccc(C(=O)NC[C@H]2CNCC(=O)N2)c(NCCc2cccc(F)c2)n1` [N-[((2R)-6-oxopiperazin-2-yl)methyl](6-(2-cyanophenyl)-2-{[2-(3-fluorophenyl)ethyl]amino}(3-pyridyl))carboxamide], the IC50 amounted to 155 nM.

Regarding `O=C(NC[C@H]1CCN1)c1ccc(-c2cn[nH]c2)nc1NCCc1cccc(F)c1` [N-[((2R)azetidin-2-yl)methyl](2-{[2-(3-fluorophenyl)ethyl]amino}-6-pyrazol-4-yl(3-pyridyl))carboxamide], the IC50 turned out to be 5440 nM.

Regarding `Cn1cc(-c2nc(NCCc3cccc(F)c3)c(C(=O)NC[C@H]3CCN3)cc2F)cn1` [N-[((2R)azetidin-2-yl)methyl](5-fluoro-2-{[2-(3-fluorophenyl)ethyl]amino}-6-(1-methylpyrazol-4-yl)(3-pyridyl))carboxamide], the IC50 was found to be 1580 nM.

With `O=C(NC[C@H]1CCN1)c1cc(F)c(-c2cn[nH]c2)nc1NCCc1cccc(F)c1` [N-[((2R)azetidin-2-yl)methyl](5-fluoro-2-{[2-(3-fluorophenyl)ethyl]amino}-6-pyrazol-4-yl(3-pyridyl))carboxamide], the IC50 worked out at 466 nM.

Consider `N#Cc1ccccc1-c1ccc(C(=O)NC[C@H]2CCN2)c(NCCc2cccc(F)c2)n1` [N-[((2R)azetidin-2-yl)methyl](6-(2-cyanophenyl)-2-{[2-(3-fluorophenyl)ethyl]amino}(3-pyridyl))carboxamide], for which the IC50 came out at 413 nM.

Turning to `N#Cc1ccccc1-c1ccc(C(=O)NC[C@H]2CNCCN2)c(NCCc2cccc(F)c2)n1` [N-[((2R)piperazin-2-yl)methyl](6-(2-cyanophenyl)-2-{[2-(3-fluorophenyl)ethyl]amino}(3-pyridyl))carboxamide], the IC50 stood at 12200 nM.

For `Cc1cc(C(=O)NC[C@H]2CCCN2)c(NCCc2cccc(F)c2)nc1-c1cnn(C)c1` [N-[((2R)pyrrolidin-2-yl)methyl](2-{[2-(3-fluorophenyl)ethyl]amino}-5-methyl-6-(1-methylpyrazol-4-yl)(3-pyridyl))carboxamide], the IC50 was 901 nM.

In the case of `Cn1cc(-c2ccc(C(=O)NC[C@H]3CCCN3)c(NCCc3cccc(F)c3)n2)cn1` [N-[((2R)pyrrolidin-2-yl)methyl](2-{[2-(3-fluorophenyl)ethyl]amino}-6-(1-methylpyrazol-4-yl)(3-pyridyl))carboxamide], the IC50 was determined as 3180 nM.

In the case of `O=C(NC[C@H]1CCCN1)c1ccc(-c2cn[nH]c2)nc1NCCc1cccc(F)c1` [N-[((2R)pyrrolidin-2-yl)methyl](2-{[2-(3-fluorophenyl)ethyl]amino}-6-pyrazol-4-yl(3-pyridyl))carboxamide], the IC50 amounted to 4750 nM.

As to `Cn1cc(-c2nc(NCCc3cccc(F)c3)c(C(=O)NC[C@H]3CCCN3)cc2Cl)cn1` [N-[((2R)pyrrolidin-2-yl)methyl](5-chloro-2-{[2-(3-fluorophenyl)ethyl]amino}-6-(1-methylpyrazol-4-yl)(3-pyridyl))carboxamide], the IC50 was determined as 167 nM.

In the case of `Cn1cc(-c2nc(NCCc3cccc(F)c3)c(C(=O)NC[C@H]3CCCN3)cc2C#N)cn1` [N-[((2R)pyrrolidin-2-yl)methyl](5-cyano-2-{[2-(3-fluorophenyl)ethyl]amino}-6-(1-methylpyrazol-4-yl)(3-pyridyl))carboxamide], the IC50 amounted to 281 nM.

Consider `N#Cc1cc(C(=O)NC[C@H]2CCCN2)c(NCCc2cccc(F)c2)nc1-c1cn[nH]c1` [N-[((2R)pyrrolidin-2-yl)methyl](5-cyano-2-{[2-(3-fluorophenyl)ethyl]amino}-6-pyrazol-4-yl(3-pyridyl))carboxamide], for which the concentration for half-maximal inhibition (IC50) came to 624 nM.

As for `Cn1cc(-c2nc(NCCc3cccc(F)c3)c(C(=O)NC[C@H]3CCCN3)cc2F)cn1` [N-[((2R)pyrrolidin-2-yl)methyl](5-fluoro-2-{[2-(3-fluorophenyl)ethyl]amino}-6-(1-methylpyrazol-4-yl)(3-pyridyl))carboxamide], the IC50 was determined as 275 nM.

`O=C(NC[C@H]1CCCN1)c1cc(F)c(-c2cn[nH]c2)nc1NCCc1cccc(F)c1` [N-[((2R)pyrrolidin-2-yl)methyl](5-fluoro-2-{[2-(3-fluorophenyl)ethyl]amino}-6-pyrazol-4-yl(3-pyridyl))carboxamide]: the IC50 was found to be 394 nM.

Turning to `N#Cc1ccccc1-c1ccc(C(=O)NC[C@H]2CCCN2)c(NCCc2cccc(F)c2)n1` [N-[((2R)pyrrolidin-2-yl)methyl](6-(2-cyanophenyl)-2-{[2-(3-fluorophenyl)ethyl]amino}(3-pyridyl))carboxamide], the IC50 amounted to 174 nM.

For the compound `N#Cc1ccccc1-c1nc(NCCc2cccc(F)c2)c(C(=O)NC[C@H]2CCCN2)cc1F` [N-[((2R)pyrrolidin-2-yl)methyl](6-(2-cyanophenyl)-5-fluoro-2-{[2-(3-fluorophenyl)ethyl]amino}(3-pyridyl))carboxamide], the IC50 turned out to be 103 nM.

Regarding `N#Cc1ccccc1-c1ccc(C(=O)NC[C@@H]2CCCCN2)c(NCCc2cccc(F)c2)n1` [N-[((2S)(2-piperidyl))methyl](6-(2-cyanophenyl)-2-{[2-(3-fluorophenyl)ethyl]amino}(3-pyridyl))carboxamide], the IC50 stood at 1020 nM.

As to `CC(=O)N1CCN(C(C)=O)[C@@H](CNC(=O)c2ccc(-c3ccccc3C#N)nc2NCCc2cccc(F)c2)C1` [N-[((2S)-1,4-diacetylpiperazin-2-yl)methyl](6-(2-cyanophenyl)-2-{[2-(3-fluorophenyl)ethyl]amino}(3-pyridyl))carboxamide], the IC50 came out at 17200 nM.

On to `CC(=O)N1CCN(C)C[C@@H]1CNC(=O)c1ccc(-c2ccccc2C#N)nc1NCCc1cccc(F)c1` [N-[((2S)-1-acetyl-4-methylpiperazin-2-yl)methyl](6-(2-cyanophenyl)-2-{[2-(3-fluorophenyl)ethyl]amino}(3-pyridyl))carboxamide], for which the IC50 was 6790 nM.

For `CC(=O)N1CCC[C@H]1CNC(=O)c1ccc(-c2ccccc2)nc1NCCc1ccccn1` [N-[((2S)-1-acetylpyrrolidin-2-yl)methyl]{6-phenyl-2-[(2-(2-pyridyl)ethyl)amino](3-pyridyl)}carboxamide], the IC50 was 15700 nM.

On to `CC(C)(C)OC(=O)NCC(=O)N1CCCC[C@H]1CNC(=O)c1ccc(-c2ccccc2C#N)nc1NCCc1cccc(F)c1` [N-[((2S)-1-{2-[(tert-butoxy)carbonylamino]acetyl}(2-piperidyl))methyl](6-(2-cyanophenyl)-2-{[2-(3-fluorophenyl)ethyl]amino}(3-pyridyl))carboxamide], for which the IC50 is 17000 nM.

As to `CC(C)(C)OC(=O)NCCC(=O)N1CCCC[C@H]1CNC(=O)c1ccc(-c2ccccc2C#N)nc1NCCc1cccc(F)c1` [N-[((2S)-1-{3-[(tert-butoxy)carbonylamino]propanoyl}(2-piperidyl))methyl](6-(2-cyanophenyl)-2-{[2-(3-fluorophenyl)ethyl]amino}(3-pyridyl))carboxamide], the IC50 was determined as 8640 nM.

Regarding `CC(C)(C)OC(=O)NCCCN1C(=O)CC[C@H]1CNC(=O)c1ccc(-c2ccccc2C#N)nc1NCCc1cccc(F)c1` [N-[((2S)-1-{3-[(tert-butoxy)carbonylamino]propyl}-5-oxopyrrolidin-2-yl)methyl](6-(2-cyanophenyl)-2-{[2-(3-fluorophenyl)ethyl]amino}(3-pyridyl))carboxamide], the IC50 turned out to be 4520 nM.

As to `CN1CCN[C@@H](CNC(=O)c2ccc(-c3ccccc3C#N)nc2NCCc2cccc(F)c2)C1` [N-[((2S)-4-methylpiperazin-2-yl)methyl](6-(2-cyanophenyl)-2-{[2-(3-fluorophenyl)ethyl]amino}(3-pyridyl))carboxamide], the IC50 was 2920 nM.

In the case of `N#Cc1ccccc1-c1ccc(C(=O)NC[C@@H]2CCC(=O)N2)c(NCCc2cccc(F)c2)n1` [N-[((2S)-5-oxopyrrolidin-2-yl)methyl](6-(2-cyanophenyl)-2-{[2-(3-fluorophenyl)ethyl]amino}(3-pyridyl))carboxamide], the IC50 is 133 nM.

On to `Cn1cc(-c2ccc(C(=O)NC[C@@H]3CNCC(=O)N3)c(NCCc3cccc(F)c3)n2)cn1` [N-[((2S)-6-oxopiperazin-2-yl)methyl](2-{[2-(3-fluorophenyl)ethyl]amino}-6-(1-methylpyrazol-4-yl)(3-pyridyl))carboxamide], for which the IC50 stood at 13100 nM.

On to `O=C1CNC[C@@H](CNC(=O)c2ccc(-c3cc[nH]n3)nc2NCCc2cccc(F)c2)N1` [N-[((2S)-6-oxopiperazin-2-yl)methyl](2-{[2-(3-fluorophenyl)ethyl]amino}-6-pyrazol-3-yl(3-pyridyl))carboxamide], for which the IC50 amounted to 6390 nM.

On to `O=C1CNC[C@@H](CNC(=O)c2ccc(-c3cn[nH]c3)nc2NCCc2cccc(F)c2)N1` [N-[((2S)-6-oxopiperazin-2-yl)methyl](2-{[2-(3-fluorophenyl)ethyl]amino}-6-pyrazol-4-yl(3-pyridyl))carboxamide], for which the IC50 was 16000 nM.

Regarding `N#Cc1ccccc1-c1ccc(C(=O)NC[C@@H]2CNCC(=O)N2)c(NCCc2cccc(F)c2)n1` [N-[((2S)-6-oxopiperazin-2-yl)methyl](6-(2-cyanophenyl)-2-{[2-(3-fluorophenyl)ethyl]amino}(3-pyridyl))carboxamide], the IC50 was found to be 819 nM.

(Values after patent US7932270B2 (Cytokinetics, Inc., priority 2006, dated 2011).)
